Values joined by “and” are separate entries in the source; they are usually repeats but may differ in a detail not shown here. Equal values may be shown once.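 How tested: cells in 96-well plates exposed to compound for 48 hours at five concentrations. Abbreviation: GI50, concentration required for 50% inhibition of growth. TGI is the concentration that stops growth completely.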
Experiments:
Test in all cases: NCI-60 cell line screen, 48 h
[1] = test system: HT29 colon
[2] = test system: NCI-H460 lung
[3] = test system: OVCAR-5 ovarian
[4] = test system: HCT-15 colon
[5] = test system: M14 melanoma
[6] = test system: SW-620 colon
[7] = test system: ACHN renal
[8] = test system: OVCAR-8 ovarian
[9] = test system: K-562 leukemia
[10] = test system: RXF 393 renal

| SMILES | TGI [1] | TGI [2] | TGI [3] | TGI [4] | TGI [5] | TGI [6] | TGI [7] | TGI [8] | TGI [9] | TGI [10] | GI50 [1] | GI50 [2] | GI50 [9] | GI50 [3] | GI50 [4] | GI50 [5] | GI50 [6] | GI50 [7] | GI50 [8] | GI50 [10] |
| --- | --- | --- | --- | --- | --- | --- | --- | --- | --- | --- | --- | --- | --- | --- | --- | --- | --- | --- | --- | --- |
| NC(=O)C12CC3CC(CC(Br)(C3)C1)C2 | > 100 µM | > 100 µM | > 100 µM | > 100 µM | > 100 µM | > 100 µM | > 100 µM | > 100 µM | – | – | – | – | – | – | – | – | – | – | – | – |
| Cc1ccc(NC(=O)CC2SC(N)=NC2=O)cc1C (stereo unspecified) | > 100 µM | > 100 µM | > 100 µM | > 100 µM | > 100 µM | > 100 µM | > 100 µM | > 100 µM | > 100 µM | – | – | – | – | – | – | – | – | – | – | – |
| CSc1nc(C#N)c(N)n1C | – | > 100 µM | > 100 µM | > 100 µM | > 100 µM | > 100 µM | > 100 µM | > 100 µM | > 100 µM | > 100 µM | – | – | – | – | – | – | – | – | – | – |
| Nc1ccc(C(=O)N/C(=C\c2cccc([N+](=O)[O-])c2)c2nc3ccc(Cl)cc3[nH]2)cc1 | > 100 µM | – | > 100 µM | > 100 µM | > 100 µM | > 100 µM | > 100 µM | > 100 µM | > 100 µM | > 100 µM | – | – | – | – | – | – | – | – | – | – |
| Nc1n[nH]c2ccc([C@@H]3Nc4cc5[nH]ncc5cc4[C@H]4C5CCC(C5)[C@@H]34)cc12 (stereo partly specified) | > 44.3 µM | > 41.4 µM | > 80.9 µM | > 100 µM | > 100 µM | > 100 µM | 53.5 µM | > 100 µM | > 100 µM | – | 0.367 µM | 0.368 µM | 0.315 µM | 0.565 µM | 0.431 µM | 0.294 µM | 0.392 µM | 0.723 µM | 0.511 µM | – |
| CCN(CC)CCC(CNc1c(C)cnc2cc(Cl)ccc12)c1ccc(Cl)cc1 (stereo unspecified) | – | 25.2 µM | 24 µM | – | – | 19.6 µM | 20.1 µM | 25.5 µM | – | 18.4 µM | – | 10 µM | – | 8.93 µM | – | – | 4.91 µM | 6.47 µM | 10.8 µM | 4.39 µM |
| Clc1ccccc1NN(Cc1ccncc1)c1ccccc1Cl | 26.1 µM | – | 38.4 µM | 34.3 µM | 35.7 µM | 35.1 µM | 35.6 µM | 29.3 µM | 30.2 µM | 31.8 µM | – | – | – | – | – | – | – | – | – | – |
| O=C(O)[C@@H](NS(=O)(=O)c1ccc2ccccc2c1)c1ccccc1 | > 100 µM | > 100 µM | > 100 µM | > 100 µM | > 100 µM | – | > 100 µM | – | > 100 µM | > 100 µM | – | – | – | – | – | – | – | – | – | – |
| COc1cccc2c1[C@H]1CO[C@H]3C4C[C@H](C(=O)O)C([C@@H](C2)N13)N4C (stereo partly specified) | – | > 38.2 µM | 4.94 µM and > 24.3 µM | 6.12 µM | 6.35 µM | 8.4 µM and 5.82 µM | – | 7.05 µM and 34.4 µM | – | 2.42 µM and 0.576 µM | – | 1.36 µM | 0.397 µM | – | – | – | 3.61 µM | – | 2.81 µM and 0.888 µM | 0.136 µM |
| Cc1occ2c1C(=O)CC1C2[C@@H](O)CC2C(C)(C)CCC[C@]12C (stereo partly specified) | > 100 µM | – | – | > 100 µM | > 100 µM | > 100 µM | > 100 µM | > 100 µM | > 100 µM | > 100 µM | – | – | – | – | – | – | – | – | – | – |
| NCCC(=O)NC(Cc1cnc[nH]1)C(=O)O (stereo unspecified) | > 100 µM | > 100 µM | > 100 µM | > 100 µM | > 100 µM | > 100 µM | > 100 µM | > 100 µM | > 100 µM | – | – | – | – | – | – | – | – | – | – | – |
| COc1cc2c(cc1-c1coc3cc(OCC=C(C)C)ccc3c1=O)OCO2 | – | 35.1 µM | > 100 µM | 32.8 µM | > 100 µM | > 100 µM | > 100 µM | – | > 100 µM | – | – | – | – | – | – | – | – | – | – | – |
| CCCCCCCCCCCCCP(=O)(NCC(N)=O)OCC (stereo unspecified) | 31.7 µM | 39.8 µM | 38.3 µM | 36 µM | 30.6 µM | 41 µM | 47.9 µM | 45.8 µM | – | 37.7 µM | – | – | – | – | – | – | – | – | – | – |
| CC(=O)Nc1ccc(C(=O)N2N=C(C)/C(=C/c3cccc([N+](=O)[O-])c3)C2=O)cc1 | > 100 µM | > 100 µM | > 100 µM | – | > 100 µM | > 100 µM | > 100 µM | > 100 µM | > 100 µM | – | – | – | – | – | – | – | – | – | – | – |
| C#CCSc1nc(N)c2ncn(C3OC(COP(=O)(O)O)C(O)C3O)c2n1 (stereo unspecified) | > 239 µM | > 239 µM | > 239 µM | > 239 µM | > 239 µM | > 239 µM | > 239 µM | > 239 µM | > 239 µM | – | – | – | – | – | – | – | – | – | – | – |
| O=C(O)COc1ccc(C(=O)/C(SS/C(C(=O)c2ccc(OCC(=O)O)c(Cl)c2Cl)=C2\C=C(c3ccc(Br)cc3)SS2)=C2/C=C(c3ccc(Br)cc3)SS2)c(Cl)c1Cl | > 100 µM | > 71.8 µM | > 100 µM | > 40.9 µM | > 91.6 µM | 31.2 µM | 22 µM | > 76 µM | > 100 µM | – | – | – | – | – | – | – | – | – | – | – |
| COc1ccc2c(c1)C(=O)c1c-2c(N2CCNCC2)nc2ccccc12 | 3.34 µM | 1.98 µM | 30.2 µM | 11.8 µM | 3.51 µM | 2.6 µM | 8.24 µM | 23.4 µM | > 100 µM | – | 1.49 µM | 0.614 µM | 2.64 µM | 14.4 µM | 3.44 µM | 1.91 µM | 1.32 µM | 2.78 µM | 5.81 µM | – |

Reference: PubChem BioAssay (NCI)
